Test results from patent US10961246B2, “18F-labelled folates as PET radiotracers” (MERCK & CIE, priority 2008, dated 2021).

How the values were obtained:
folate receptor [1] = type: in vivo, male NMRI nu/nu mice; details: ca. 10 MBq; scans 75-105 min post injection
Protocol: (§1) In vivo PET imaging using the γ-[^18F]fluoro-folic acid was performed in male NMRI nu/nu mice bearing KB tumor xenografts. Ca. 10 MBq of the radiotracer were injected into each animal. In the blockade group, 200 μg natural folic acid was injected 10 min prior to the radiotracer. The PET scans were acquired from 75 min to 105 min post injection.
(§2) This pattern is consistent with the physiological distribution of the folate receptor and points out the high specificity of γ-[^18F]fluoro-folic acid.
(§3) FIG. 3 show representative series of normalized horizontal slices of whole body PET scans using γ-[^18F]fluoro-folic acid under control and blockade conditions. Arrows with circles indicate the tumor site and arrows with squares indicate the kidneys.

folate receptor [2] = molecular target: T1, folate receptor (Homo sapiens, UniProt P15328); type: in vivo, male NMRI nu/nu mice; details: blockade 200 μg natural folic acid 10 min prior; scans 75-105 min post injection
T1 construct: endogenous in cells; host or cells: KB tumor xenografts in male NMRI nu/nu mice
Protocol: as §1, §2, §3

folate receptor [3] = experiment: Ex vivo biodistribution study in mice bearing KB tumor xenografts, control vs folic acid blockade; set-up: species or system male NMRI nu/nu mice
Protocol: (§4) γ-[^18F]fluoro-folic acid was applied in ex vivo biodistribution studies using male NMRI nu/nu mice bearing KB tumor xenografts. ˜2 MBq of the radiotracer were injected into each animal. In a blockade group, 200 μg natural folic acid was injected 10 min prior to the radiotracer. The animals were sacrificed 105 min post injection.

folate receptor [4] = molecular target: T1, folate receptor; experiment: as above; set-up: species or system male NMRI nu/nu mice; details: ~2 MBq radiotracer; blockade group 200 μg natural folic acid 10 min prior; sacrificed 105 min post injection; KB tumor
Protocol: as §4

T1 sequence (P15328 25-234 limits assumed): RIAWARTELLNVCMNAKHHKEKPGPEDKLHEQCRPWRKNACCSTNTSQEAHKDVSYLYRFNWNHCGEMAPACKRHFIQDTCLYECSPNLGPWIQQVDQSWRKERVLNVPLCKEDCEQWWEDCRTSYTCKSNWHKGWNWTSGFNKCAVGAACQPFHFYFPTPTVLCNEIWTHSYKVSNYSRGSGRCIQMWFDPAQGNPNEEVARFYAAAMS

Nc1nc2ncc(CNc3ccc(C(=O)N[C@@H](CC([18F])C(=O)O)C(=O)O)cc3)nc2c(=O)[nH]1 (stereo partly shown) [γ-[^18F]fluoro-folic acid, γ-[^18F]fluorofolic acid]
uptake in liver cells (PET) (folate receptor [1]): radioactivity accumulation | uptake in the kidney cortex (PET) (folate receptor [1]): high specific uptake | uptake in the kidney medulla (PET) (folate receptor [1]): no uptake | specificity of uptake in PET (folate receptor [2]): highly specific and blocked by natural folic acid | uptake in folate receptor-positive tissues, such as tumor and kidney (FIG. 2) (folate receptor [3]; control group vs blockade group): high specific uptake | specific blockade of radiotracer uptake in the kidneys (folate receptor [3]; ~2 MBq radiotracer, blockade group 200 μg natural folic acid 10 min prior, sacrificed 105 min post injection, kidneys): 86.0% | specific blockade of radiotracer uptake in folate receptor-positive KB tumors (folate receptor [4]): 90.0%
